Experimental data from US7781416B2, “Derivatives of partially desulphated glycosaminoglycans as heparanase inhibitors, endowed with antiangiogenic activity and devoid of anticoagulating effect” (Sigma-Tau Research Switzerland S.A., priority 2002, dated 2010).

Experiments:
Format in all cases: biochemical
[1] = molecular target: T1, recombinant heparanase (Homo sapiens, UniProt Q9Y251); test: Heparanase inhibition activity with sulfate labeled ECM as substrate (Example 4, Table 2); details: 1 μg/ml; heparanase 40 ng/ml, 4 h, 37° C., pH 6.0
T1 construct: Recombinant enzymatically active heparanase was purified from heparanase-transfected CHO cells; made in house; host or cells: CHO cells transfected with heparanase
T1 sequence (Q9Y251 158-543 limits assumed): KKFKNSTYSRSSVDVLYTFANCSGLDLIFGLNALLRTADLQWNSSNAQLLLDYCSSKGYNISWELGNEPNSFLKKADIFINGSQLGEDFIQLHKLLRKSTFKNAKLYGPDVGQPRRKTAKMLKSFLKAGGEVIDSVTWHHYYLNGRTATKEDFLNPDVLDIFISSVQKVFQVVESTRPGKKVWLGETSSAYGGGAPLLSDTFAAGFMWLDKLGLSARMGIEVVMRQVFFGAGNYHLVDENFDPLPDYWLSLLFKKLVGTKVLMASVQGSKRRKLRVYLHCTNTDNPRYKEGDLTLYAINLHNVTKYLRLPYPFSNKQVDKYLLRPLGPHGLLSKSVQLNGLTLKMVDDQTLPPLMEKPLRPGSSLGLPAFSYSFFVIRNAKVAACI
T1 sequence (Q9Y251 36-109 limits assumed): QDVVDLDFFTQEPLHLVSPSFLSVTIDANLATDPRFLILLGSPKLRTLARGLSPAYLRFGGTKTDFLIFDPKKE
Procedure: Recombinant enzymatically active heparanase was purified from heparanase-transfected CHO cells (1).
Bovine corneal endothelial cells were plated into 35-mm tissue culture dishes at an initial density of 2×10^5 cells/ml and cultured as described above, except that 4% dextran T-40 was included in the growth medium (1, 52). On day 12, the subendothelial ECM was exposed by dissolving the cell layer with PBS containing 0.5% Triton X-100 and 20 mM NH4OH, followed by four washes with PBS (12). The ECM remained intact, free of cellular debris and firmly attached to the entire area of the tissue culture dish. To produce sulfate labelled ECM, […] (Amersham, Buckinghamshire, UK) was added (25 μCi/ml) on days 2 and 5 after seeding and the cultures were incubated with the label without medium change and processed as described (1, 52). Nearly 80% of the ECM radioactivity was incorporated into HSPG.
Heparin species were tested for their ability to inhibit heparanase, using metabolically sulfate labeled ECM as a substrate. […] Fractions (0.2 ml) were eluted with PBS at a flow rate of 5 ml/h and counted for radioactivity. […]
Heparanase activity is calculated as the total amount of cpm eluted in peak II multiplied by the Kav (i.e., elution position) of these fragments. […]

[2] = molecular target: T1, recombinant heparanase; test: Gel permeation analysis before and after digestion with heparanase (susceptibility to cleavage); details: 2 mg compound, 4 μg recombinant heparanase, 48 h, 37° C., pH 5.8; GPC-HPLC
Procedure: FIG. 8. Glycol-splitting inhibits cleavage by heparanase. Gel filtration profiles of fully N-acetylated heparin (A) and 52% glycol split heparin (B) before (a) and after (b) incubation with heparanase. 2 mg of each compound were incubated for 48 h at 37° C. in 40 mM phosphate-citrate buffer, pH 5.8, with or without 4 μg recombinant heparanase in a total volume of 50 μl. The samples were lyophilized, then redisolved in 0.5 ml water and analyzed by GPC-HPLC using 300×7.8 mm TSK PW 2000 and PW 3000 colums and a refraction index detector. The sharp peak is from salts.
Gel permeation analysis of N-acetyl heparin (NAH) and ˜50% glycol-split heparin (H, 52gs) before and after digestion with heparinase 2 mg of each compound were incubated for 48 h at 37° C. in 40 mM phosphate-citrate buffer, pH 5.8, with or without 4 μg recombinant heparanase in a total volume of 50 μl. The samples were lyophilized, then redisolved in 0.5 ml of water and analyzed by GPC-HPLC using 300×7.8 mm TSK PW 2000 and PW 3000 columns.

[3] = molecular target: T2, recombinant heparanase (Homo sapiens, UniProt Q9Y251); test: Heparanase inhibition, fragmentation of HS of sulphate labelled ECM (Table 1); details: pH 6.2
T2 sequence (Q9Y251 36-543): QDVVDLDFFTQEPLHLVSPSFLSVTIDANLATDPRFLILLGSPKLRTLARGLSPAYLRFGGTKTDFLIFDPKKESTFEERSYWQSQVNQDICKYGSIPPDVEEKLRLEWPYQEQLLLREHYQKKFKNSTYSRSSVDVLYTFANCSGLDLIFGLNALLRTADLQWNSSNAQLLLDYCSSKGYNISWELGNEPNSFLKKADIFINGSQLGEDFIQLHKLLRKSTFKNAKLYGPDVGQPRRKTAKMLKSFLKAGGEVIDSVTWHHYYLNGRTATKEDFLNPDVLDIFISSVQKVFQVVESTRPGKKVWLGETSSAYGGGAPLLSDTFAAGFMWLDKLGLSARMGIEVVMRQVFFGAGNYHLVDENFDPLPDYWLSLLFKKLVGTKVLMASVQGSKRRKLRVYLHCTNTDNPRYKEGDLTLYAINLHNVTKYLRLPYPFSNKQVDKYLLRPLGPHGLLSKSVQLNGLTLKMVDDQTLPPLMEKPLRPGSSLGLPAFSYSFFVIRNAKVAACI
Procedure: The heparanase inhibiting activity was determined according to a method established by Vlodavsky's group (Bitan M. et al, 1995). The method is based on evaluation of the extent of fragmentation of the heparan sulphate chains of heparan sulphate proteoglycans (HSPG) caused by heparanase. Sulphate labelled extracellular matrix (ECM) is most commonly used as a source of HSPG. Sulphate labelled ECM is incubated with recombinant heparanase at pH 6.2 in the absence and in the presence of increasing concentrations of the test compound. To evaluate the occurrence of proteoglycan degradation, the incubation medium is collected and applied for gel filtration on Sepharose 6B columns (0.9×30 cm). Fractions (0,2 ml) are eluted with PBS at a flow rate of 5 ml/h and counted for radioactivity. The excluded volume (Vo) is marked by blue dextran and the total included volume (Vt) by phenol red. Degradation fragments of HS side chains are eluted from Sepharose 6B at 0.5<Kav<0.8 (peak II).

Heparanase inhibitory activity, % Mean [SD (N)] [1]: ~70%
cleavage by heparanase [2]: cleaved by heparanase
Inhibition [3]: >100%
Substance: Heparin
